The values below are quoted from earlier work in patent publication US6676926B2, “Radiopharmaceuticals for diagnosing Alzheimer's disease” (Schering Aktiengesellschaft, priority 2000, dated 2004).

The test system of one series is synthetic-amyloid. The following applies: in vitro.
The conditions of series [1]: normal mice.

Turning to `O=C(O)c1cc(/N=N/c2ccc(-c3ccc(/N=N/c4ccc(O)c(C(=O)O)c4)cc3)cc2)ccc1O` [Chrysamine G], in the series with synthetic-amyloid, the “binding to synthetic amyloid” value was “binds synthetic-amyloid well”. Besides, the blood-brain barrier passage result in series [1] was “crosses the blood-brain barrier”.
